# Experimental data as given in patent US6756233B1, “Method for measuring free ligands in biological fluids, and assay kits for measuring same” (priority 1985, dated 2004).
# Values joined by “and” are separate entries in the source; they are usually repeats but may differ in a detail not shown here. Equal entries are not always repeated. Where two headings read alike, the source gives them in different places.
# Tests used:
# [1] = biological target: T1, sex hormone-binding globulin (SHBG) (Homo sapiens, UniProt P04278); test: Free testosterone assay, SHBG-spiked serum pool (Example 3); settings: charcoal-absorbed human serum pool spiked with 400 μg SHBG/milliliter
# T1 sequence (P04278 30-402): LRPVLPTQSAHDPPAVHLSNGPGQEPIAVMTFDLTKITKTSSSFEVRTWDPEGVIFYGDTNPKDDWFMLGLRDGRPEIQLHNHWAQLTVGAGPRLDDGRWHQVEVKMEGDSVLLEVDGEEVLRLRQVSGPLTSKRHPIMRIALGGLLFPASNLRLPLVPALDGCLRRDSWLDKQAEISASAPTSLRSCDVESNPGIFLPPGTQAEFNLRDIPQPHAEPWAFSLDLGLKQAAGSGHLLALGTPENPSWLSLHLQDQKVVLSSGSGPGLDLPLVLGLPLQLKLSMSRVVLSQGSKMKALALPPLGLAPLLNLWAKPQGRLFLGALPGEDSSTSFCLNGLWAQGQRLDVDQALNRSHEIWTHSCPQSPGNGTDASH
# Description: To investigate the effect of sex hormone-binding globulin (SHBG) levels on the free testosterone assay system, a charcoal-absorbed human serum pool was spiked with 400 μg SHBG/milliliter, a level which is approximately 10 times normal.
# Since charcoal absorption removes testosterone from the serum pool, it should have free (and total) testosterone concentrations of zero—that is, percent bound values of approximately 100% B/Bo—both before and after spiking.
# transport proteins = settings: single samples
# Description: Free testosterone calibrators, prepared by adding different amounts of testosterone to human serum free of any apparent testosterone, were calibrated by direct equilibrium dialysis and assigned free testosterone values in pg/ml. […] The tubes are incubated for 4 hours at 37° C., then decanted and radioactivity counted. Results are computed by interpolation to from the calibration curve.
# albumin [2] = biological target: T2, albumin (Homo sapiens, UniProt P02768); settings: cited from earlier work
# T2 sequence (P02768 25-609): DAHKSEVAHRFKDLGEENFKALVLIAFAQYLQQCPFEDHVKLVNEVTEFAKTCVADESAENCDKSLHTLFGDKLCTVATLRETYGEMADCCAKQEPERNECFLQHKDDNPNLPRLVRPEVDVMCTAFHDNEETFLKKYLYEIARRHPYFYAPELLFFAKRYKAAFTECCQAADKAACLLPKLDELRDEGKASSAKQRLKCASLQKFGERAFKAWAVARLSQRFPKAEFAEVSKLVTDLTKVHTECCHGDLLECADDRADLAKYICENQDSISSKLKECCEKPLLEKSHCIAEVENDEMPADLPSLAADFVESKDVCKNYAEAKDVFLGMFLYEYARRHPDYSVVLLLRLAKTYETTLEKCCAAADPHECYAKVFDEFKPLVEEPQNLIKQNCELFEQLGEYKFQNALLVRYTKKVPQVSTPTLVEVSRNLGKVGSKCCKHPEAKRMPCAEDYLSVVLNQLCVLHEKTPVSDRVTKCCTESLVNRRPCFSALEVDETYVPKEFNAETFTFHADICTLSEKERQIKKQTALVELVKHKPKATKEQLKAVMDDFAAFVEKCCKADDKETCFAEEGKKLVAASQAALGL
# albumin and/or SHBG = test system: albumin and/or SHBG; parameters: species or system human
# Description: Testosterone was selected as a representative member of this family. […] This analog tracer was subsequently compounded in 0.01 M HEPES buffer, pH=7.4, containing 1 mg/ml charcoal-absorbed human serum albumin and 0.01% sodium azide. Blocking agents were added, as described in the specific examples below.
# [3] = test system: anti-T4 antibody-coated tubes; test: Free T4 assay of 20 samples with tracers holding different blocking agents (Example 5); parameters: species or system rabbits
# Description: The tubes are then incubated for 60 minutes at 37° C. After this incubation the tubes are decanted and the bound radioactivity is counted. Results are calculated from the calibration curve and expressed in ng/dl.
# Iodinated T4 analog was compounded as described above and divided into five aliquots. To each aliquot the following reagents were added.
# Considering tracer 1 as the reference and comparing the others to it, the following results were obtained.
# albumin [4] = biological target: T2, albumin; test: Free testosterone assay, effect of oleic acid (Example 6); parameters: from tissue; host or cells: patient serum samples
# Description: Since non-esterified free fatty acids (NEFA) have a higher association constant to albumin than does testosterone, addition of NEFA should displace free testosterone from albumin. This was confirmed by an experiment in which various amounts of oleic acid were added to each of three patient samples.
compound,measurement,setting,value
6-hydroxytestosterone-19-carboxymethyl ether histamine,"percent bound value, B/Bo",[1],99%
same,percent bound (% B/Bo) After charcoal absorption,transport proteins; 3rd Trimester,99% and 96% and 97%
same,percent bound (% B/Bo) After charcoal absorption,transport proteins; Normal Females,105% and 104%
same,binding to endogenous binders,endogenous binders,does not bind to endogenous binders
"O=[N+]([O-])c1ccc(O)c([N+](=O)[O-])c1 [2,4-dinitrophenol]","association constant, albumin (single aromatic compounds)",albumin [2],"11,000"
same,effect on protein-bound testosterone and tracer,albumin and/or SHBG,displace testosterone from albumin and/or SHBG
"O=S(=O)(O)c1cccc2cccc(Nc3ccccc3)c12 [ANS, 8-anilino-1-naphthalenesulfonic acid]",effect on protein-bound testosterone and tracer,albumin and/or SHBG,displace testosterone from albumin and/or SHBG
CCCCCCCC/C=C\CCCCCCCC(=O)O [oleic acid],oleic acid concentration in the tracer that displaces bound unlabeled T4 from albumin,[3],greater than 1.0 mmol/l
same,"apparent free testosterone level, Mean",albumin [4]; Oleic Acid Added 2.5 mmol/l,7.9 pg/mL
same,"apparent free testosterone level, Mean",albumin [4]; Oleic Acid Added 5.0 mmol/l,14.8 pg/mL
same,"apparent free testosterone level, Patients 1-3",albumin [4]; Oleic Acid Added 5.0 mmol/l,11.6 pg/mL and 11.1 pg/mL and 21.8 pg/mL
same,"apparent free testosterone level, Mean",albumin [4]; Oleic Acid Added 7.5 mmol/l,23.2 pg/mL
same,"apparent free testosterone level, Mean",albumin [4]; Oleic Acid Added 10.0 mmol/l,32.0 pg/mL
O=C1OC(c2ccc(O)c(S(=O)(=O)O)c2)(c2ccc(O)c(S(=O)(=O)O)c2)c2c(Br)c(Br)c(Br)c(Br)c21 [sulfobromophthalein],effect on protein-bound testosterone and tracer,albumin and/or SHBG,inhibits the binding of the analog tracer to albumin without displacing testosterone bound to albumin
